# Measured values as given in patent publication US20170174633A1 (RESEARCH TRIANGLE INSTITUTE, priority 2014, published 2017).
# Values joined by “and” are separate entries in the source; they are usually repeats but may differ in a detail not shown here. Identical values can stand only once. Like-named read-outs stand apart in the source and are kept apart here.
# Columns and labels:
# NTS2 versus NTS1 = conditions: literature report; cited from earlier work
# [1] = literature report; cited from earlier work
# rNTS1 receptor [2] = molecular target: T1, rNTS1 receptor (Rattus norvegicus, UniProt P20789); assay: Calcium mobilization assay for NTS1 receptor (FLIPR assay, FlexStation II); type: cell-based; conditions: antagonism of NT induced calcium release; ± SEM; read-out: NTS1 Ke
# T1 construct: expressed in transfected cells
# Procedure: (§1) The binding affinities of the test compounds for the rNTS1 and rNTS2 receptors listed in Tables 1 through 4 were determined using previously reported competitive binding assays^49. […] The cells used in the binding assay were CHO-kl cells (American Type Culture Collection) engineered to over-express either the rNTS1 or rNTS2 receptor. Measures of functional agonism and antagonism were obtained by measuring changes in intensity of a calcium-sensitive fluorescent dye as an indirect measure of changes in internal calcium concentrations. These measurements were performed using a FLIPR Tetra (NTS2) or a FlexStation II plate reader for NTS1 (Molecular Devices) and were analyzed using GraphPad Prism software.
# CHO-kl-rNTS1 cells were maintained in DMEM/F12 medium supplemented with 10% fetal bovine serum (Gibco), 100 U/ml penicillin/100 ug/ml streptomycin, 100 ug/ml normocin (Invivogen), and 250 ug/ml geneticin. For calcium mobilization assays, cells were plated at 30,000 cells/well in black, clear-bottom 96-well plates 24 hrs before the assay and incubated at 37° C., 5% CO2. Prior to the assay, Calcium 5 dye (Molecular Devices) was reconstituted according to manufacturer instructions. The reconstituted dye was diluted 1:40 in assay buffer (lx HBSS, 20 mM HEPES, and 2.5 mM Probenicid (Sigma), pH 7.4). Growth media was removed and 200 ul of this diluted dye was added to each well. Plates were incubated for 45 min at 37° C., 5% CO2 after dye addition. […] Full-log serial dilutions of the test compounds were made at 10× the desired final concentration in 1% DMSO assay buffer and warmed to 37° C. After the pre-treatment incubation, fluorescence intensity was measured on a FlexStation II fluorometric imaging plate reader (Molecular Devices). Relative fluorescence units (RFU) were measured before (20 readings) and after (40 readings) the agonist compound addition for a total 60 second read time (Excitation=485 nm, Emission=525 nm, cutoff=515 nm). For antagonist assays, cells were treated with Calcium dye for 45 min at 37° C., 5% CO2 as with the agonist assays. Then the test antagonist compounds were added in 1% DMSO in assay buffer and the plate was incubated for 15 min at 37° C., 5% CO2.
# (§2) To determine EC50, IC50, and Ke values, data were fit to a three-parameter logistic equation using GraphPad Prism software. Ki values for radioligand binding assays were determined from ICso values using the equation of Cheng and Prusoff. All data are from at least three independent experiments run in duplicate wells.
# rNTS2 receptor [3] = molecular target: T2, rNTS2 receptor (Rattus norvegicus, UniProt Q63384); assay: Calcium mobilization assay for NTS2 receptor (FLIPR Tetra); type: cell-based; conditions: FLIPR assay, ± SEM; for NTS2 Emax % of 5b: calcium release relative to 5b; for EC50: compound induced calcium release, CHO-kl-rNTS2 cells
# T2 construct: expressed in transfected cells
# T2 sequence (Q63384 1-416): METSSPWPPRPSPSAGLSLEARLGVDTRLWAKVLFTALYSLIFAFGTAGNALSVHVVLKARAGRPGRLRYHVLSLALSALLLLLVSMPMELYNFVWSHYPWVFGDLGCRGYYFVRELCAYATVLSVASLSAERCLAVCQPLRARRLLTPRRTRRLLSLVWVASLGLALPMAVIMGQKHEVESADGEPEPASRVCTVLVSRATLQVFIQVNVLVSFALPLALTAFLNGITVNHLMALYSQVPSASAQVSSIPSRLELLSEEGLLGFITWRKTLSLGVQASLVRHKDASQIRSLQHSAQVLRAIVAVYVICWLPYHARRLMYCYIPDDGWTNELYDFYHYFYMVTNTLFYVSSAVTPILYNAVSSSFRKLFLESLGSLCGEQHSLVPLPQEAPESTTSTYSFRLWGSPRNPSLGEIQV
# Procedure: as §1
# CHO-kl-rNTS2 cells were maintained in DMEM/F12 supplemented with 10% FBS, pen/strep, 100 μg/ml normocin, and 400 μg/ml geneticin. For calcium mobilization assays, cells were plated at 25,000 cells/well in black, clear-bottom 96-well plates 24 hrs before the assay and incubated at 37° C., 5% CO2. 100 μl reconstituted Calcium 5 dye (Molecular Devices, diluted 1:20 in assay buffer (1×HBSS, 20 mM HEPES, 2.5 mM Probenicid, pH 7.4)) was added per well and plates were incubated for 45 min at 37° C., 5% CO2. […] Full-log serial dilutions of the test compounds were made at 10× the desired final concentration in 1% DMSO assay buffer and warmed to 37° C. After the pre-treatment incubation, fluorescence intensity was measured on a FLIPR Tetra fluorometric imaging plate reader (Molecular Devices). Relative Fluorescence Units (RFUs) were measured every second for 100 seconds (14 readings before compound addition to establish baseline fluorescence, 85 after) Exposure time 0.53 s, Gain=2000, Excitation intensity=30%, Gate open=10%. For antagonist assays, 1/10 volume of 10×concentration of the test compound dilutions in 10% DMSO in assay buffer was added to cells in lieu of the 10% DMSO only in assay buffer for the pre-treatment.
# as §2
# rNTS2 receptor [4] = molecular target: T2, rNTS2 receptor; assay: 125I-NT competitive binding assay, whole CHO-kl cells over-expressing rNTS2; conditions: for Ki: competition with 125I-NT, ± SEM, read-out: 125I-NT Binding NTS2 Ki; for NTS2/NTS1 selectivity ratio: ratio of 125I-NT binding Ki at NTS1 and NTS2; for selectivity for NTS2 (versus NTS1): relative binding affinities at NTS1 and NTS2
# Procedure: as §1
# Briefly, cells were plated at 100,000 cells/well in 24-well plates in complete DMEM/F12 medium supplemented with 10% fetal bovine serum, 100 units of penicillin/mL, 100 μg of streptomycin/mL, 0.1 mg/mL of normocin, and 250 μg/mL geneticin. Cells were incubated at 37° C. with 5% CO2 and 95% humidity for 48 hrs. […] Cells were washed twice in Earle's buffer, extracted in 1 ml 0.1N NaOH and counted in a Packard Cobra II Gamma Counter for 1 minute.
# as §2
# rNTS1 receptor [5] = molecular target: T1, rNTS1 receptor; assay: 125I-NT competitive binding assay, whole CHO-kl cells over-expressing rNTS1; conditions: competition with 125I-NT, read-out: NTS1 Ki
# Procedure: The binding affinities of the test compounds for the rNTS1 and rNTS2 receptors listed in Tables 1 through 4 were determined using previously reported competitive binding assays^49. The NTS1 and 2 receptors were labeled using ^125I-NT. The cells used in the binding assay were CHO-kl cells (American Type Culture Collection) engineered to over-express either the rNTS1 or rNTS2 receptor. Measures of functional agonism and antagonism were obtained by measuring changes in intensity of a calcium-sensitive fluorescent dye as an indirect measure of changes in internal calcium concentrations. These measurements were performed using a FLIPR Tetra (NTS2) or a FlexStation II plate reader for NTS1 (Molecular Devices) and were analyzed using GraphPad Prism software. Antagonism was measured as inhibition of NT-induced calcium release (NTS1) or inhibition of SR142948 (5b)-induced calcium release (NTS2).
# Briefly, cells were plated at 100,000 cells/well in 24-well plates in complete DMEM/F12 medium supplemented with 10% fetal bovine serum, 100 units of penicillin/mL, 100 μg of streptomycin/mL, 0.1 mg/mL of normocin, and 250 μg/mL geneticin. Cells were incubated at 37° C. with 5% CO2 and 95% humidity for 48 hrs. Cells were then equilibrated for 10 minutes in Earle's buffer (130 mM NaCl, 5 mM KCl, 1.8 mM CaCl2, 0.8 mM MgCl2, and 20 mM HEPES, pH 7.4) supplemented with 0.1% BSA and 0.1% glucose, and then incubated with or without 10 nM test compound in 0.1 nM ^125I-NT at 37° C. for 30 min. Cells were washed twice in Earle's buffer, extracted in 1 ml 0.1N NaOH and counted in a Packard Cobra II Gamma Counter for 1 minute.
# as §2
# T1 sequence (P20789 whole entry): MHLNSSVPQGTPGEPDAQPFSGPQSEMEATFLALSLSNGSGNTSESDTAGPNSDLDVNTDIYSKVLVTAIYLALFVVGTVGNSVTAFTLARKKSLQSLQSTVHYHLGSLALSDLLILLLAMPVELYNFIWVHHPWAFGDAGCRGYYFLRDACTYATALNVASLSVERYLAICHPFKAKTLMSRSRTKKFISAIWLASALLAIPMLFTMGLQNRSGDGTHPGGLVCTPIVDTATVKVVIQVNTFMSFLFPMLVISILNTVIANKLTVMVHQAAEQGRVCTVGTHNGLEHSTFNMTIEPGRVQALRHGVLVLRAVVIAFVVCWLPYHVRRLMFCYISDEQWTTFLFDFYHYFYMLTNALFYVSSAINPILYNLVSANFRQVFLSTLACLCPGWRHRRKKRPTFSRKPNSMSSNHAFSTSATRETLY
Molecule,selectivity for NTS2 (versus NTS1) (NTS2 versus NTS1),plasma stability [1],Kb (rNTS1 receptor [2]) [µM],NTS2 Emax % of 5b (rNTS2 receptor [3]),EC50 (rNTS2 receptor [3]) [µM],Ki (rNTS2 receptor [4]) [µM],NTS2/NTS1 selectivity ratio (rNTS2 receptor [4]),Ki (rNTS1 receptor [5]; ± SEM) [µM],selectivity for NTS2 (versus NTS1) (rNTS2 receptor [4]) [fold],Ki (rNTS1 receptor [5]; bound given in uM) [µM]
(N^αMe)Arg-Lys-Pro-N-homo-Tyr-Ile-Leu [4b],"22,000 fold",excellent plasma stability,–,–,–,–,–,–,–,–
Arg-Arg-Pro-N-homo-Tyr-Ile-Leu [4a],"12,000 fold",–,–,–,–,–,–,–,–,–
"(N^αMe)Arg-Lys-Pro-D-3,1-Nal-tLeu-Leu [compound 3]",> 100 fold,–,–,–,–,–,–,–,–,–
"COc1cccc(OC)c1-c1cc(C(=O)NC2(C(=O)O)CCCCC2)nn1-c1cccc2ccccc12 [26b, 1-({[5-(2,6-Dimethoxyphenyl)-1-naphthalen-1-yl-1H-pyrazol-3-yl]carbonyl}amino)cyclohexane-carboxylic Acid]",–,–,0.23 ± 0.079,35 % of 5b and 35 ± 1 % of 5b,0.018 ± 0.0016,0.116 ± 0.039,–,–,–,–
"COc1ccc(OC)c(-c2cc(C(=O)N[C@H](C(=O)O)C3CCCCC3)nn2-c2ccnc3cc(Cl)ccc23)c1 [15b, (2S)-({[1-(7-chloroquinolin-4-yl)-5-(2,5-dimethoxyphenyl)-1H-pyrazol-3-yl]carbonyl}amino) (cyclohexyl)ethanoic acid]",–,–,1.28 ± 0.544,19 ± 3 % of 5b,0.216 ± 0.029,0.604 ± 0.141,–,–,–,–
"COc1cccc(OC)c1-c1cc(C(=O)N[C@H](C(=O)O)C2CCCCC2)nn1-c1ccc(F)cc1 [28b, (2S)-Cyclohexyl({[5-(2,6-dimethoxyphenyl)-1-(4-fluorophenyl)-1H-pyrazol-3-yl]carbonyl}amino)ethanoic Acid]",–,–,3.34 ± 0.549,22 ± 5 % of 5b,0.271 ± 0.024,0.622 ± 0.245,–,–,–,–
"COc1ccccc1-c1cc(C(=O)NC2(C(=O)O)C3CC4CC(C3)CC2C4)nn1-c1ccc(F)cc1 (stereo not drawn) [compound 31, 2-({[1-(4-fluorophenyl)-5-(2-methoxyphenyl)-1H-pyrazol-3-yl]carbonyl}amino)tricyclo[3.3.1.13,7]decane-2-carboxylic acid]",–,–,3.81 ± 0.422,42 ± 12 % of 5b,0.138 ± 0.055,0.023 ± 0.005,188,4.33 ± 0.656,–,–
"COc1cccc(OC)c1-c1cc(C(=O)N[C@H](C(=O)O)C2CCCCC2)nn1-c1cccc2ccccc12 [24b, (2S)-Cyclohexyl({[5-(2,6-dimethoxyphenyl)-1-naphthalen-1-yl-1H-pyrazol-3-yl]carbonyl}amino)-ethanoic Acid]",–,–,0.058 ± 0.006,45 % of 5b and 45 ± 1 % of 5b,0.159 ± 0.009,0.536 ± 0.02,–,–,–,–
"COc1cccc(OC)c1-c1cc(C(=O)NC2(C(=O)O)CCCCC2)nn1-c1ccc(F)cc1 [29b, 1-({[5-(2,6-Dimethoxyphenyl)-1-(4-fluorophenyl)-1H-pyrazol-3-yl]carbonyl}amino)cyclohexane-carboxylic Acid]",–,–,–,12 ± 0.5 % of 5b,0.019 ± 0.003,0.14 ± 0.029,23,3.21 ± 0.879,23,–
"COc1cccc(OC)c1-c1cc(C(=O)NC2(C(=O)O)CCCCCC2)nn1-c1ccnc2cc(Cl)ccc12 [20b, 1-({[1-(7-Chloroquinolin-4-yl)-5-(2,6-dimethoxyphenyl)-1H-pyrazol-3-yl]carbonyl}amino)cyclo-heptanecarboxylic Acid]",–,–,0.042 ± 0.006,89 ± 5 % of 5b,0.021 ± 0.005,0.17,–,–,–,–
"COc1ccccc1-c1cc(C(=O)NC2(C(=O)O)CCCCC2)nn1-c1ccc(F)cc1 [7b, 1-({[1-(4-Fluorophenyl)-5-(2-methoxyphenyl)-1H-pyrazol-3-yl]carbonyl}amino)cyclo-hexane carboxylic Acid]",–,–,–,7 ± 2 % of 5b,0.012 ± 0.006,0.153 ± 0.01,161,–,161,> 25
